Measured values published in PMC9115581, “Synthesis and Biological Evaluations of Betulinic Acid Derivatives With Inhibitory Activity on Hyaluronidase and Anti-Inflammatory Effects Against Hyaluronic Acid Fragment Induced Inflammation” (Frontiers in Chemistry, 2022).

Assays:
[1] = Cell viability of BV-2 cells; assay type: cell-based, murine; conditions: mouse, BV2 cells
Protocol: The cytotoxicity of each compound was determined in BV-2 and RAW264.7 cells with the MTT assay ([Li et al., 2020]). Briefly, cells were seeded in 96-well plates at 20,000 cells per well. Cells were allowed to adhere for 24 h. BA derivatives were prepared to 100 mM in DMSO, then diluted in serum-free media to yield concentrations of 10 µM. After the treatment of the cells with BA derivatives for 2 h, the cells were incubated in the absence or presence of LPS (1 μg/mL) for 24 h. Cellular viability was determined as a percentage of control (DMSO) by using a Cell Proliferation Kit II (Promega, Madison, WI, United States). XTT reagent (0.3 mg/mL) was then added to each well and incubated for 4 h at 37°C and an absorbance value was measured at 492 nm using a Spectramax M2 microplate reader ([Hayon et al., 2003]).

LPS-stimulated BV2 cells = assay: NO production (Griess assay) in LPS-stimulated BV2 cells; assay type: cell-based, murine; conditions: Mus musculus, BV-2, LPS 1 μg/mL
Protocol: (§1) NO concentration was determined by the Griess assay according to a previous report ([Ma et al., 2016]), RAW264.7 and BV-2 cells (20,000 cells per well) were plated into 96-well plates. After an incubation period of 24 h, the cells were pre-treated with BA derivatives for 2 h and were co-treated with LPS (1 μg/mL) for 24 h. For the LMWHAFs-induced inflammation assay, THP-1 cells were pre-treated with BA derivatives for 2 h and then treated with LPS (1 μg/mL) and HA fragment (a hyaluronan oligosaccharide 6mer; 50 μg/mL) from Amsbio (Rockville, MD, United States; product code: CSR-11002) for 24 h ([Campo et al., 2012]; [Scuruchi et al., 2016]). Subsequently, the culture medium was mixed with the Griess reagent in a 1:1 ratio followed by a 15 min incubation in the dark. An absorbance value was measured at 540 nm using a Spectramax M2 microplate reader, and the NO concentration was calculated based on the standard NO curve.

[2] = tested on: LPS-stimulated RAW264.7 cells; assay: NO production (Griess assay) in LPS-stimulated RAW264.7 cells; assay type: cell-based, murine; conditions: for Reduction of LPS-stimulated NO production: 10 μM, LPS 1 μg/mL; for Decrease of NO production as compared to parent compound BA: LPS-stimulated
Protocol: as §1

[3] = tested on: LPS-stimulated THP-1 cells; assay: IL-6 by ELISA in LPS-stimulated THP-1 cells; assay type: cell-based, human; conditions: 10 μM, LPS alone 695.6 pg/mL
Protocol: To evaluate the effect of BA derivatives on LPS-induced IL-6 secretion, THP-1 monocytes were seeded at a density of 50,000 cells per well in a 48-well plate and differentiated with PMA (25 ng/mL), pre-treated with the BA derivatives at concentrations of 10 μM was performed for 6 h followed by stimulation with or without 1 μg/mL LPS for 12 h. The cell culture supernatant was collected for the measurement of IL-6. The levels of IL-6 were determined using specific ELISA kits (BioLegend, San Diego, CA, United States) ([Liu et al., 2020]).

[4] = tested on: HA fragment-stimulated THP-1 cells; assay: NO production in HA fragment (LMWHAFs) stimulated THP-1 cells; assay type: cell-based, human; conditions: 10 μM, HA fragment 6mer 50 μg/mL
Protocol: as §1

Row | Compound | viability at 10 µM [1] | inhibition at 10 µM (LPS-stimulated BV2 cells) | Reduction of LPS-stimulated NO production [2] | LPS-induced secretion of IL-6 [3] | Reduction of LMWHAF-stimulated NO production [4] | Decrease of NO production as compared to parent compound BA [2]
1 | C=C(C)[C@@H]1CC[C@]2(C(=O)O)CC[C@]3(C)[C@H](CC[C@@H]4[C@@]5(C)CC[C@H](O)C(C)(C)[C@@H]5CC[C@]43C)[C@@H]12 [BA, betulinic acid] | 110% | 3.4% | 20.4% | 613.3 pg/mL | 12.4% | 
2 | C=C(C)[C@@H]1CC[C@]2(C(=O)O)CC[C@]3(C)[C@H](CC[C@@H]4[C@@]5(C)C/C(=C\c6cc(OC)ccc6[N+](=O)[O-])C(=O)C(C)(C)[C@@H]5CC[C@]43C)[C@@H]12 [BA-03, (1R,3aS,5aR,5bR,7aR,11aR,11bR,13aR,13bR)-10-((E)-5-methoxy-2-nitrobenzylidene)-5a,5b,8,8,11a-pentamethyl-9-oxo-1-(prop-1-en-2-yl)icosahydro-3aH-cyclopenta[a]chrysene-3a-carboxylic acid] |  |  | 42.9% | 586.0 pg/mL |  | 2.3 fold
3 | C=C(C)[C@@H]1CC[C@]2(C(=O)O)CC[C@]3(C)[C@H](CC[C@@H]4[C@@]5(C)C/C(=C\c6cccc(C(F)(F)F)c6)C(=O)C(C)(C)[C@@H]5CC[C@]43C)[C@@H]12 [BA-11, (1R,3aS,5aR,5bR,7aR,11aR,11bR,13aR,13bR)-5a,5b,8,8,11a-pentamethyl-9-oxo-1-(prop-1-en-2-yl)-10-((E)-3-(trifluoromethyl)benzylidene)icosahydro-3aH-cyclopenta[a]chrysene-3a-carboxylic acid] |  | 7.7% | 33.4% |  | 11.3% | 
4 | C=C(C)[C@@H]1CC[C@]2(C(=O)O)CC[C@]3(C)[C@H](CC[C@@H]4[C@@]5(C)C/C(=C\c6cc(F)ccc6[N+](=O)[O-])C(=O)C(C)(C)[C@@H]5CC[C@]43C)[C@@H]12 [BA-04, (1R,3aS,5aR,5bR,7aR,11aR,11bR,13aR,13bR)-10-((E)-5-fluoro-2-nitrobenzylidene)-5a,5b,8,8,11a-pentamethyl-9-oxo-1-(prop-1-en-2-yl)icosahydro-3aH-cyclopenta[a]chrysene-3a-carboxylic acid] |  |  | 32.3% | 539.6 pg/mL |  | 
5 | C=C(C)[C@@H]1CC[C@]2(C(=O)O)CC[C@]3(C)[C@H](CC[C@@H]4[C@@]5(C)C/C(=C\c6ccccc6OC)C(=O)C(C)(C)[C@@H]5CC[C@]43C)[C@@H]12 [BA-05, (1R,3aS,5aR,5bR,7aR,11aR,11bR,13aR,13bR)-10-((E)-2-methoxybenzylidene)-5a,5b,8,8,11a-pentamethyl-9-oxo-1-(prop-1-en-2-yl)icosahydro-3aH-cyclopenta[a]chrysene-3a-carboxylic acid] |  |  | 38.5% | 589.8 pg/mL |  | 
6 | C=C(C)[C@@H]1CC[C@]2(C(=O)O)CC[C@]3(C)[C@H](CC[C@@H]4[C@@]5(C)C/C(=C\c6ccccc6Br)C(=O)C(C)(C)[C@@H]5CC[C@]43C)[C@@H]12 [BA-02, (1R,3aS,5aR,5bR,7aR,11aR,11bR,13aR,13bR)-10-((E)-2-bromobenzylidene)-5a,5b,8,8,11a-pentamethyl-9-oxo-1-(prop-1-en-2-yl)icosahydro-3aH-cyclopenta[a]chrysene-3a-carboxylic acid] |  |  |  | 586.6 pg/mL |  | 
7 | C=C(C)[C@@H]1CC[C@]2(C(=O)O)CC[C@]3(C)[C@H](CC[C@@H]4[C@@]5(C)C/C(=C\c6ccc(OC)cc6)C(=O)C(C)(C)[C@@H]5CC[C@]43C)[C@@H]12 [BA-13, (1R,3aS,5aR,5bR,7aR,11aR,11bR,13aR,13bR)-10-((E)-4-methoxybenzylidene)-5a,5b,8,8,11a-pentamethyl-9-oxo-1-(prop-1-en-2-yl)icosahydro-3aH-cyclopenta[a]chrysene-3a-carboxylic acid] |  | 33.6% | 46.4% |  | 35.6% | 2.1 fold
8 | C=C(C)[C@@H]1CC[C@]2(C(=O)O)CC[C@]3(C)[C@H](CC[C@@H]4[C@@]5(C)C/C(=C\c6cccc(OC)c6)C(=O)C(C)(C)[C@@H]5CC[C@]43C)[C@@H]12 [BA-09] |  | 36% |  |  |  | 
